Test results reported in ChEMBL document CHEMBL1126816, “Inhibition of human leukocyte elastase. 6. Inhibition by 6-substituted penicillin esters” (Bioorg Med Chem Lett, 1993).
pIC50: −log10 of the molar value.

These molecules were tested against T1, Neutrophil elastase (Homo sapiens, UniProt P08246) (assay: Inhibitory concentration required against Human Leukocyte Elastase (HLE) for 50% reduction in rate of hydrolysis of (suc-Ala-Ala-Pro-Ala-p-NA) peptide).
T1 sequence (P08246 whole entry): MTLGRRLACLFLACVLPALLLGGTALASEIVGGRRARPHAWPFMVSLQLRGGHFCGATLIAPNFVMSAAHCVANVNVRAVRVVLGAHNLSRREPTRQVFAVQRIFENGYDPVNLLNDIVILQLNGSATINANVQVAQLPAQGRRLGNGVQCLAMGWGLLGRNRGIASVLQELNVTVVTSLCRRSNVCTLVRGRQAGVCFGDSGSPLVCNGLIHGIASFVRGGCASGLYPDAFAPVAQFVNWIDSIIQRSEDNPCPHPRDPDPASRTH

Row | SMILES | pIC50
1 | CC1(C)S[C@@H]2[C@H](NC(=O)C(F)(F)F)C(=O)N2[C@H]1C(=O)OCc1ccccc1 | 4.92
2 | CO[C@@]1(NC(=O)C(F)(F)F)C(=O)N2[C@@H](C(=O)OCc3ccccc3)C(C)(C)S(=O)(=O)[C@@H]21 | 5.05
3 | C[C@@H](OC(=O)NCc1ccccc1)[C@H]1C(=O)N2[C@@H](C(=O)OCc3ccccc3)C(C)(C)S(=O)(=O)[C@H]12 | 6.15
4 | CC1(C)[C@H](C(=O)OCc2ccccc2)N2C(=O)[C@H](OCc3ccccc3)[C@H]2S1(=O)=O | 5.40
5 | C[C@H](OC(=O)NCc1ccccc1)[C@@H]1C(=O)N2[C@@H](C(=O)OCc3ccccc3)C(C)(C)S(=O)(=O)[C@H]12 | 6.52
6 | CCO[C@H]1C(=O)N2[C@@H](C(=O)OCc3ccccc3)C(C)(C)S(=O)(=O)[C@H]12 | 5.70
7 | CN(C(=O)C(F)(F)F)[C@H]1C(=O)N2[C@@H](C(=O)OCc3ccccc3)C(C)(C)S(=O)(=O)[C@H]12 | 6.70
8 | CC1(C)[C@H](C(=O)OCc2ccccc2)N2C(=O)[C@H](Cl)[C@H]2S1(=O)=O | 4.85
9 | CC1(C)S[C@@H]2[C@@H](NC(=O)C(F)(F)F)C(=O)N2[C@H]1C(=O)OCc1ccccc1 | 5.40
10 | CO[C@]1(NC(=O)C(F)(F)F)C(=O)N2[C@@H](C(=O)OCc3ccccc3)C(C)(C)S(=O)(=O)[C@@H]21 | 6.10
11 | CC1(C)[C@H](C(=O)OCc2ccccc2)N2C(=O)[C@H](OC(=O)Cc3ccccc3)[C@H]2S1(=O)=O | 5.40
12 | CC1(C)[C@H](C(=O)OCc2ccccc2)N2C(=O)[C@@](C)(NC(=O)C(F)(F)F)[C@H]2S1(=O)=O | < 4.70
13 | CO[C@H]1C(=O)N2[C@@H](C(=O)OC(C)(C)C)C(C)(C)S(=O)(=O)[C@H]12 | < 4.70
14 | CC1(C)[C@H](C(=O)OCc2ccccc2)N2C(=O)[C@H](NC(=O)C(F)(F)F)[C@H]2S1(=O)=O | 6.82
15 | CC1(C)[C@H](C(=O)OCC(F)(F)F)N2C(=O)[C@@H](NC(=O)C(F)(F)F)[C@H]2S1(=O)=O | 5.52
16 | CC(=O)O[C@H]1C(=O)N2[C@@H]1SC(C)(C)[C@@H]2C(=O)OCc1ccccc1 | 5.00
17 | CC(=O)O[C@H]1C(=O)N2[C@@H](C(=O)OCc3ccccc3)C(C)(C)[S+]([O-])[C@@H]12 (stereo not given in full) | 5.30
18 | CC1(C)[C@H](C(=O)OCc2ccccc2)N2C(=O)[C@@H](COC(=O)NCc3ccccc3)[C@H]2S1(=O)=O | 6.15
19 | CC1(C)[C@H](C(=O)OCc2ccccc2)N2C(=O)[C@H](COC(=O)NCc3ccccc3)[C@H]2S1(=O)=O | 5.40
20 | Cc1ccc(S(=O)(=O)O[C@H]2C(=O)N3[C@@H](C(=O)OCc4ccccc4)C(C)(C)S(=O)(=O)[C@H]23)cc1 | 7.30
21 | COC(=O)[C@@H]1N2C(=O)[C@H](OC)[C@H]2S(=O)(=O)C1(C)C | 4.70
22 | CC1(C)[C@H](C(=O)OCC(F)(F)F)N2C(=O)[C@H](NC(=O)C(F)(F)F)[C@H]2S1(=O)=O | 7.00
23 | CO[C@H]1C(=O)N2[C@@H](C(=O)OCC(F)(F)F)C(C)(C)S(=O)(=O)[C@H]12 | 5.40
24 | C[C@H](OC(=O)NCc1ccccc1)[C@H]1C(=O)N2[C@@H](C(=O)OCc3ccccc3)C(C)(C)S(=O)(=O)[C@H]12 | 5.15
25 | CN(C(=O)C(F)(F)F)[C@@H]1C(=O)N2[C@@H](C(=O)OCc3ccccc3)C(C)(C)S(=O)(=O)[C@H]12 | 6.15
26 | C[C@@H](OC(=O)NCc1ccccc1)[C@@H]1C(=O)N2[C@@H](C(=O)OCc3ccccc3)C(C)(C)S(=O)(=O)[C@H]12 | 5.00
27 | CC[C@@]1(NC(=O)C(F)(F)F)C(=O)N2[C@@H](C(=O)OCc3ccccc3)C(C)(C)S(=O)(=O)[C@@H]21 | 5.52
28 | CC1(C)[C@H](C(=O)OCc2ccccc2)N2C(=O)[C@H](OC(=O)COc3ccccc3)[C@H]2S1(=O)=O | 5.30
29 | CC(=O)O[C@H]1C(=O)N2[C@@H](C(=O)OCc3ccccc3)C(C)(C)S(=O)(=O)[C@H]12 | 6.70

These molecules were tested against T1, Neutrophil elastase (assay: Inhibitory concentration required against Human Leukocyte Elastase (HLE) for 50% reduction in rate of hydrolysis of (suc-Ala-Ala-Pro-Ala-p-NA) peptide;compound was inactive).

Row | SMILES | pIC50
30 | CC1(C)[C@H](C(=O)OCc2ccccc2)N2C(=O)[C@@H](NC(=O)C(F)(F)F)[C@H]2S1(=O)=O | 5.70
